Test results taken from US20080188447A1, “Glucocorticoid-lowering composition” (priority 2007, published 2008).

Experiment: Daily food intake with subcutaneous steroid supplementation (Example 3)
Assay type: in vivo, rat
Settings: group C (oral corn oil vehicle, no extract), steroid 5 mg/kg/day sc on days 4 and 5
Description: Male Wistar rats weighing about 250 g (2 groups designated as group C, control; and E, experimental treatment; 24 individuals per group) were kept as described in the Example 1 from day 1 to day 6 of the experiment. On days 1 through 4, a botanical extract from a plant Asclepias incarnata enriched with pregnane derivatives according to Formula (I) was administered orally in doses of 100 mg/kg body weight/day in 1 ml of corn oil (Sigma #C8267). As a negative control (vehicle), animals were administered orally with 1 ml of corn oil alone. On day 4 of the experiment both groups of animals C and E were further subdivided into 6 groups containing 4 animals each, designated C, control; PREG, pregnenolone; PROG, progesterone; DEOX, deoxycorticosterone; CORT, corticosterone; and DHEA, dehydroepiandrosterone. On day 4 and day 5, animals from these subgroups received a subcutaneous injection of 5 mg/kg body weight/day of the respective steroid compound in 5% DMSO and corn oil; total volume of 0.1 ml. The control animals in group C subgroup C and group E subgroup C received a subcutaneous injection of vehicle (5% DMSO in corn oil) only. On days 4 and 6 food intake was measured. […]

## C[C@]12C[C@H](O)[C@H]3[C@@H](CCC4=CC(=O)CC[C@@]43C)[C@@H]1CC[C@@H]2C(=O)CO [CORT, corticosterone]
  Daily food intake, Day 6: no direct effect on food intake alone
